Reference: US10004701B2, “Methods and compositions for treating infection” (UNIVERSITY OF ROCHESTER, priority 2012, dated 2018)
Where a name gives a salt, the structure may show the parent alone. Read-outs that look alike come from different tables or passages of the source.

Tests used:
Experiment in all cases: AK assay 384-well format, Prestwick library screening
E. coli = assay type: cell-based, Escherichia coli; conditions: for fold induction at 50 µM: Escherichia coli, 3 h
P. aeruginosa = assay type: cell-based, Pseudomonas aeruginosa; conditions: for fold induction at 50 µM: Pseudomonas aeruginosa, 3 h
K. pneumoniae = assay type: cell-based, Klebsiella pneumoniae; conditions: for fold induction at 50 µM: Klebsiella pneumoniae, 3 h
E. cloacae = assay type: cell-based, Enterobacter cloacae; conditions: for fold induction at 50 µM: Enterobacter cloacae, 3 h
[1] = test system: A. baumannii strain 98-37-09; assay type: cell-based, Acinetobacter baumannii; conditions: for fold induction at 50 µM: Acinetobacter baumannii, 983709, 3 h
[2] = test system: S. aureus strain USA300-0114; assay type: cell-based, Staphylococcus aureus; conditions: for fold induction at 50 µM: Staphylococcus aureus, USA300, 3 h
E. faecium = assay type: cell-based, Enterococcus faecium; conditions: for fold induction at 50 µM: Enterococcus faecium, 3 h
[3] = planktonic E. coli, 50 μM final drug concentration, 384-well, cutoff for positive-scoring molecules 3-fold increase, read-out: AK-based Prestwick Library Screening Results: E. coli (increase in extracellular AK activity)
[4] = planktonic P. aeruginosa, 50 μM final drug concentration, 384-well, cutoff for positive-scoring molecules 3-fold increase, read-out: AK-based Prestwick Library Screening Results: P. aeruginosa (increase in extracellular AK activity)
[5] = planktonic K. pneumoniae, 50 μM final drug concentration, 384-well, cutoff for positive-scoring molecules 3-fold increase, read-out: AK-based Prestwick Library Screening Results: K. pneumoniae (increase in extracellular AK activity)
[6] = planktonic E. cloacae, 50 μM final drug concentration, 384-well, cutoff for positive-scoring molecules 3-fold increase, read-out: AK-based Prestwick Library Screening Results: E. cloacae (increase in extracellular AK activity)
[7] = planktonic A. baumannii, 50 μM final drug concentration, 384-well, cutoff for positive-scoring molecules 3-fold increase, read-out: AK-based Prestwick Library Screening Results: A. baumannii (increase in extracellular AK activity)
[8] = planktonic S. aureus, 50 μM final drug concentration, 384-well, cutoff for positive-scoring molecules 3-fold increase, read-out: AK-based Prestwick Library Screening Results: S. aureus (increase in extracellular AK activity)
[9] = planktonic E. faecium, 50 μM final drug concentration, 384-well, cutoff for positive-scoring molecules 3-fold increase, read-out: AK-based Prestwick Library Screening Results: E. faecium (increase in extracellular AK activity)

Structure (SMILES): COC(=O)C1=CO[C@@H](C)[C@H]2CN3CCc4c([nH]c5ccccc45)[C@@H]3C[C@H]12.Cl [Ajmalicine hydrochloride]
- AK-based Prestwick Library Screening Results, E. coli (increase in extracellular AK activity) (E. coli; planktonic E. coli, 50 μM final drug concentration, cutoff for positive-scoring molecules 3-fold increase): 0.9
- AK-based Prestwick Library Screening Results, P. aeruginosa (increase in extracellular AK activity) (P. aeruginosa; planktonic P. aeruginosa, 50 μM final drug concentration, cutoff for positive-scoring molecules 3-fold increase): 0.9
- AK-based Prestwick Library Screening Results, K. pneumoniae (increase in extracellular AK activity) (K. pneumoniae; planktonic K. pneumoniae, 50 μM final drug concentration, cutoff for positive-scoring molecules 3-fold increase): 0.7
- AK-based Prestwick Library Screening Results, E. cloacae (increase in extracellular AK activity) (E. cloacae; planktonic E. cloacae, 50 μM final drug concentration, cutoff for positive-scoring molecules 3-fold increase): 1.2
- AK-based Prestwick Library Screening Results, A. baumannii (increase in extracellular AK activity) ([1]; planktonic A. baumannii, 50 μM final drug concentration, cutoff for positive-scoring molecules 3-fold increase): 0.9
- AK-based Prestwick Library Screening Results, S. aureus (increase in extracellular AK activity) ([2]; planktonic S. aureus, 50 μM final drug concentration, cutoff for positive-scoring molecules 3-fold increase): 0.5
- AK-based Prestwick Library Screening Results, E. faecium (increase in extracellular AK activity) (E. faecium; planktonic E. faecium, 50 μM final drug concentration, cutoff for positive-scoring molecules 3-fold increase): 0.9

Structure (SMILES): O=C(O)CNC(=O)C(CS)Cc1ccccc1 (stereo not drawn) [Thiorphan]
- fold induction at 50 µM (E. coli; read-out: AK-based Prestwick Library Screening Results, E. coli (fold increase in extracellular AK activity)): 1.2
- fold induction at 50 µM (P. aeruginosa; read-out: AK-based Prestwick Library Screening Results, P. aeruginosa (fold increase in extracellular AK activity)): 1.2
- fold induction at 50 µM (K. pneumoniae; read-out: AK-based Prestwick Library Screening Results, K. pneumoniae (fold increase in extracellular AK activity)): 1.3
- fold induction at 50 µM (E. cloacae; read-out: AK-based Prestwick Library Screening Results, E. cloacae (fold increase in extracellular AK activity)): 1.5
- fold induction at 50 µM ([1]; read-out: AK-based Prestwick Library Screening Results, A. baumannii (fold increase in extracellular AK activity)): 1.2
- fold induction at 50 µM ([2]; read-out: AK-based Prestwick Library Screening Results, S. aureus (fold increase in extracellular AK activity)): 1.3
- fold induction at 50 µM (E. faecium; read-out: AK-based Prestwick Library Screening Results, E. faecium (fold increase in extracellular AK activity)): 1

Structure (SMILES): COc1ccc2cc3[n+](cc2c1OC)CCc1cc2c(cc1-3)OCO2 [Berberine chloride]
- fold induction at 50 µM (E. coli; planktonic E. coli, 50 μM final drug concentration, cutoff for positive-scoring molecules 3-fold increase, read-out: AK-based Prestwick Library Screening Results, E. coli (increase in extracellular AK activity)): 1
- fold induction at 50 µM (P. aeruginosa; planktonic P. aeruginosa, 50 μM final drug concentration, cutoff for positive-scoring molecules 3-fold increase, read-out: AK-based Prestwick Library Screening Results, P. aeruginosa (increase in extracellular AK activity)): 0.9
- fold induction at 50 µM (K. pneumoniae; planktonic K. pneumoniae, 50 μM final drug concentration, cutoff for positive-scoring molecules 3-fold increase, read-out: AK-based Prestwick Library Screening Results, K. pneumoniae (increase in extracellular AK activity)): 0.7
- fold induction at 50 µM (E. cloacae; planktonic E. cloacae, 50 μM final drug concentration, cutoff for positive-scoring molecules 3-fold increase, read-out: AK-based Prestwick Library Screening Results, E. cloacae (increase in extracellular AK activity)): 1.1
- fold induction at 50 µM ([1]; planktonic A. baumannii, 50 μM final drug concentration, cutoff for positive-scoring molecules 3-fold increase, read-out: AK-based Prestwick Library Screening Results, A. baumannii (increase in extracellular AK activity)): 0.9
- fold induction at 50 µM ([2]; planktonic S. aureus, 50 μM final drug concentration, cutoff for positive-scoring molecules 3-fold increase, read-out: AK-based Prestwick Library Screening Results, S. aureus (increase in extracellular AK activity)): 0.7
- fold induction at 50 µM (E. faecium; planktonic E. faecium, 50 μM final drug concentration, cutoff for positive-scoring molecules 3-fold increase, read-out: AK-based Prestwick Library Screening Results, E. faecium (increase in extracellular AK activity)): 1

Structure (SMILES): CC1COc2c(N3CCN(C)CC3)c(F)cc3c(=O)c(C(=O)O)cn1c23 (stereo not drawn) [Ofloxacin]
- fold induction at 50 µM (E. coli; [3]): 15.7
- fold induction at 50 µM (P. aeruginosa; [4]): 20
- fold induction at 50 µM (K. pneumoniae; [5]): 1
- fold induction at 50 µM (E. cloacae; [6]): 4.1
- fold induction at 50 µM [1, 7]: 3.7
- fold induction at 50 µM [2, 8]: 2.8
- fold induction at 50 µM (E. faecium; [9]): 1.4

Structure (SMILES): Cc1ncc(CO)c(CO)c1O [Pyridoxine hydrochloride]
- fold induction at 50 µM (E. coli; 50 μM final drug concentration, planktonic, […], read-out: AK-based Prestwick Library Screening Results, E. coli (fold increase in extracellular AK activity)): 1.4
- fold induction at 50 µM (P. aeruginosa; 50 μM final drug concentration, planktonic, […], read-out: AK-based Prestwick Library Screening Results, P. aeruginosa (fold increase in extracellular AK activity)): 1.2
- fold induction at 50 µM (K. pneumoniae; 50 μM final drug concentration, planktonic, […], read-out: AK-based Prestwick Library Screening Results, K. pneumoniae (fold increase in extracellular AK activity)): 1.1
- fold induction at 50 µM (E. cloacae; 50 μM final drug concentration, planktonic, […], read-out: AK-based Prestwick Library Screening Results, E. cloacae (fold increase in extracellular AK activity)): 1.7
- fold induction at 50 µM ([1]; 50 μM final drug concentration, planktonic, […], read-out: AK-based Prestwick Library Screening Results, A. baumannii (fold increase in extracellular AK activity)): 1.4
- fold induction at 50 µM ([2]; 50 μM final drug concentration, planktonic, […], read-out: AK-based Prestwick Library Screening Results, S. aureus (fold increase in extracellular AK activity)): 1.3
- fold induction at 50 µM (E. faecium; 50 μM final drug concentration, planktonic, […], read-out: AK-based Prestwick Library Screening Results, E. faecium (fold increase in extracellular AK activity)): 1

Structure (SMILES): CCCN(CCC)S(=O)(=O)c1ccc(C(=O)O)cc1 [Probenecid]
- fold induction at 50 µM (E. coli; 50 μM final drug concentration, planktonic, cutoff for positive 3-fold increase, read-out: AK-based Prestwick Library Screening Results, E. coli (fold increase in extracellular AK activity)): 1.4
- fold induction at 50 µM (P. aeruginosa; 50 μM final drug concentration, planktonic, cutoff for positive 3-fold increase, read-out: AK-based Prestwick Library Screening Results, P. aeruginosa (fold increase in extracellular AK activity)): 1.2
- fold induction at 50 µM (K. pneumoniae; 50 μM final drug concentration, planktonic, cutoff for positive 3-fold increase, read-out: AK-based Prestwick Library Screening Results, K. pneumoniae (fold increase in extracellular AK activity)): 1.1
- fold induction at 50 µM (E. cloacae; 50 μM final drug concentration, planktonic, cutoff for positive 3-fold increase, read-out: AK-based Prestwick Library Screening Results, E. cloacae (fold increase in extracellular AK activity)): 1.4
- fold induction at 50 µM ([1]; 50 μM final drug concentration, planktonic, cutoff for positive 3-fold increase, read-out: AK-based Prestwick Library Screening Results, A. baumannii (fold increase in extracellular AK activity)): 1.3
- fold induction at 50 µM ([2]; 50 μM final drug concentration, planktonic, cutoff for positive 3-fold increase, read-out: AK-based Prestwick Library Screening Results, S. aureus (fold increase in extracellular AK activity)): 1
- fold induction at 50 µM (E. faecium; 50 μM final drug concentration, planktonic, cutoff for positive 3-fold increase, read-out: AK-based Prestwick Library Screening Results, E. faecium (fold increase in extracellular AK activity)): 1

Structure (SMILES): OCCN1CCN(CCCN2c3ccccc3Sc3ccc(C(F)(F)F)cc32)CC1 [Fluphenazine dihydrochloride]
- fold induction at 50 µM (E. coli; [3]): 1.3
- fold induction at 50 µM (P. aeruginosa; [4]): 1.1
- fold induction at 50 µM (K. pneumoniae; [5]): 1.5
- fold induction at 50 µM (E. cloacae; [6]): 1.6
- fold induction at 50 µM [1, 7]: 1.6
- fold induction at 50 µM [2, 8]: 1
- fold induction at 50 µM (E. faecium; [9]): 1.1

Structure (SMILES): COc1ccc(CCN2CCC(Nc3nc4ccccc4n3Cc3ccc(F)cc3)CC2)cc1 [Astemizole]
- fold induction at 50 µM (E. coli; [3]): 1.3
- fold induction at 50 µM (P. aeruginosa; [4]): 1
- fold induction at 50 µM (K. pneumoniae; [5]): 1.1
- fold induction at 50 µM (E. cloacae; [6]): 1.6
- fold induction at 50 µM [1, 7]: 1.6
- fold induction at 50 µM [2, 8]: 2.2
- fold induction at 50 µM (E. faecium; [9]): 1

Structure (SMILES): CC(Cc1ccc(O)cc1)NCC(O)c1cc(O)cc(O)c1 (stereo not drawn) [Fenoterol hydrobromide]
- fold induction at 50 µM (E. coli; planktonic E. coli, 50 μM final drug concentration, 384-well, […], read-out: AK-based Prestwick Library Screening Results: E. coli (increase in extracellular AK activity)): 1.3
- fold induction at 50 µM (P. aeruginosa; planktonic P. aeruginosa, 50 μM final drug concentration, 384-well, […], read-out: AK-based Prestwick Library Screening Results: P. aeruginosa (increase in extracellular AK activity)): 1.1
- fold induction at 50 µM (K. pneumoniae; planktonic K. pneumoniae, 50 μM final drug concentration, 384-well, […], read-out: AK-based Prestwick Library Screening Results: K. pneumoniae (increase in extracellular AK activity)): 0.9
- fold induction at 50 µM (E. cloacae; planktonic E. cloacae, 50 μM final drug concentration, 384-well, […], read-out: AK-based Prestwick Library Screening Results: E. cloacae (increase in extracellular AK activity)): 1.4
- fold induction at 50 µM ([1]; planktonic A. baumannii, 50 μM final drug concentration, 384-well, […], read-out: AK-based Prestwick Library Screening Results: A. baumannii (increase in extracellular AK activity)): 1.3
- fold induction at 50 µM ([2]; planktonic S. aureus, 50 μM final drug concentration, 384-well, […], read-out: AK-based Prestwick Library Screening Results: S. aureus (increase in extracellular AK activity)): 1
- fold induction at 50 µM (E. faecium; planktonic E. faecium, 50 μM final drug concentration, 384-well, […], read-out: AK-based Prestwick Library Screening Results: E. faecium (increase in extracellular AK activity)): 1.1
